Assay results from patent publication EP3502102A1, “STING INHIBITORS” (ECOLE POLYTECHNIQUE FEDERALE DE LAUSANNE (EPFL), priority 2017, dated 2019).

Assays:
STING [1] = target: T1, STING (Mus musculus, UniProt Q3TBT3); assay: Metabolic labelling with [3H] palmitate, Flag-STING in HEK293T cells; format: cell-based; parameters: expressed in transfected cells; host or cells: HEK293T; details: HEK293T expressing Flag-STING; 1 µM; CMA 2 h
T1 sequence (Q3TBT3 1-378): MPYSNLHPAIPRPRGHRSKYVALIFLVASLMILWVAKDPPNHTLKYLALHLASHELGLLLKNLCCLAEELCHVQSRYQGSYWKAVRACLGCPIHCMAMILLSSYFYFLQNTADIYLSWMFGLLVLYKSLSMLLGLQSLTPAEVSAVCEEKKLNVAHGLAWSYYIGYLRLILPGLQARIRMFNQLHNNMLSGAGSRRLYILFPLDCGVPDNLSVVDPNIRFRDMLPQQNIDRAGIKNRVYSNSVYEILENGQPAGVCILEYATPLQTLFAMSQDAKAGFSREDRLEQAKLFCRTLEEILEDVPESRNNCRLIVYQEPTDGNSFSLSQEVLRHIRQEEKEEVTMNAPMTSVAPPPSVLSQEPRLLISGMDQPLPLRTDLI
Experimental: Reporter activity was measured 16 h after compound treatment. A nonlinear regression analysis was performed. […] Circles indicate substitutes compared to C-176. d, e, Chemical compounds from (c) were tested at 0.5 µM for inhibitory activity in HEK293T cells transfected with STING (e) or RIG-I (f) in conjunction with IFN-• luciferase reporter, respectively. b, e, f, Values of inhibitor-treated cells were normalized to DMSO-treated cells. […] Cytokine levels were normalized to DMSO-treated control cells. A nonlinear regression analysis was performed for cGAMP stimulation. b, c, BMDMs were pre-treated with C-178 (0.25 µM) and stimulated with cGAMP, cyclic di-GMP, CMA, 90mer dsDNA or LPS for 3 h. The induction of Ifnb1 mRNA levels was assessed by RT-qPCR. d, Heatmaps of RNA sequencing analysis of BMDMs treated with DMSO or CMA and with or without addition of C-178. […] Reporter activity was measured 16 h after transfection and values were normalized to DMSO-treated control cells. c, BMDMs were treated with C-178 (0.25 µM) for 1 h, washed or left untreated and after an additional hour stimulated with cGAMP. […] Flag-STING was immunoprecipitated from whole cell lysate and analysed by autoradiography. In parallel, cell lysates were analysed by immunoblotting for p-TBK1 and STING. d, HEK293T cells expressing STING were treated as indicated (C-178 (1 µM)) and stimulated with CMA for 1.5 h. […]

[2] = target: T2, endogenous human transferrin receptor (Homo sapiens, UniProt P02786); assay: Metabolic labelling with [3H] palmitate, endogenous transferrin receptor; format: cell-based; details: 1 µM
T2 construct: endogenous in cells; host or cells: HEK293T
T2 sequence (P02786 whole entry): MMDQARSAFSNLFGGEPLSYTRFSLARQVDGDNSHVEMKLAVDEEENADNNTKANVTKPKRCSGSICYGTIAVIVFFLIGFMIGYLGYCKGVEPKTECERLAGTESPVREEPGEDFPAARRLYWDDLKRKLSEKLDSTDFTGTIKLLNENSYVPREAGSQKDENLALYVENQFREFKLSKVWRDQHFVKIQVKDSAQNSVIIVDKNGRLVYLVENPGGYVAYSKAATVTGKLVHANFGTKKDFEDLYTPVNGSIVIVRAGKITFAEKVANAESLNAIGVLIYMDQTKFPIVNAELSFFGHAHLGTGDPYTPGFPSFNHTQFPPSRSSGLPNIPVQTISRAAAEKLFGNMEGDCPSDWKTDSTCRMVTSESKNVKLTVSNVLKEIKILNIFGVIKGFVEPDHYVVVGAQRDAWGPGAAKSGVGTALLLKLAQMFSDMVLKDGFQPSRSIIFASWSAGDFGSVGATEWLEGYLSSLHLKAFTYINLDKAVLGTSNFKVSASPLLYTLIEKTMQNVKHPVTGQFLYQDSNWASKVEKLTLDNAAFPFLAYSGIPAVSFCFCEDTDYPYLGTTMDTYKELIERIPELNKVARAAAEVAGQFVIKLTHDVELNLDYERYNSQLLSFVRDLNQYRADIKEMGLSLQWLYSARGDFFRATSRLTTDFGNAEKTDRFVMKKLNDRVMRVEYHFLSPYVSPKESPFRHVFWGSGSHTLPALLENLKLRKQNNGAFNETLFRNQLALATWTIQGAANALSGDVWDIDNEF

STING [3] = target: T1, STING; assay: High-throughput screen and secondary screen in HEK293T cells expressing mCherry-STING, cdG-Syn versus RIG-I; format: cell-based; parameters: expressed in transfected cells; host or cells: HEK293T; details: primary screen and counter-screen; library compounds 10 µM
Experimental: Reporter activity was measured 16 h after compound treatment. A nonlinear regression analysis was performed. […] Circles indicate substitutes compared to C-176. d, e, Chemical compounds from ([…]) in conjunction with IFN-• luciferase reporter, respectively. b, e, f, Values of inhibitor-treated cells were normalized to DMSO-treated cells. […] Cytokine levels were normalized to DMSO-treated control cells. A nonlinear regression analysis was performed for cGAMP stimulation. b, c, BMDMs were pre-treated with C-178 (0.25 µM) and stimulated with cGAMP, cyclic di-GMP, CMA, 90mer dsDNA or LPS for 3 h. The induction of Ifnb1 mRNA levels was assessed by RT-qPCR. d, Heatmaps of RNA sequencing analysis of BMDMs treated with DMSO or CMA and with or without addition of C-178. […] Reporter activity was measured 16 h after transfection and values were normalized to DMSO-treated control cells. c, BMDMs were treated with C-178 (0.25 µM) for 1 h, washed or left untreated and after an additional hour stimulated with cGAMP. […] Flag-STING was immunoprecipitated from whole cell lysate and analysed by autoradiography. In parallel, cell lysates were analysed by immunoblotting for p-TBK1 and STING. d, HEK293T cells expressing STING were treated as indicated (C-178 (1 µM)) and stimulated with CMA for 1.5 h. […] Depicted genes were measured by RT-qPCR.

## O=C(Nc1ccc(I)cc1)c1ccc([N+](=O)[O-])o1 [C-176, N-(4-iodophenyl)-5-nitro-2-furamide]
Trex1 KO mice; TREX1 KO mice, compared to vehicle, 11 days
  serum concentration of type I IFNs: significant decrease
Trex1 KO mice; TREX1 KO mice, 11 days
  histological analysis of the heart: decreased cellularity
Trex1 KO mice; mouse, in vivo
  overt toxicity (weight changes): no signs of overt toxicity
STING [1]
  [^3H] palmitate labelling of STING: inhibited
[2]
  [^3H] palmitate labelling of the endogenous transferrin receptor: neither C-178 nor C-176 affected
STING [3]
  IFN signal in response to cdG-Syn/STING versus RIG-I: selectively reduced the IFN signal in response to cdG-Syn/STING but not to RIG-I
